Source: PubChem BioAssay AID330 (DTP/NCI, 2004)
Several values for one entry are separate records, joined by “and”; a condition that tells them apart may be missing. Equal entries are not always repeated. Toxic doses and inconclusive results are not listed. The calls were made as follows: active = survival T/C of 150% or more; inactive = T/C below 125% in these data.

System: P388 leukemia ip, CD2F1 mice, survival T/C
Assay: NCI In Vivo Anticancer Drug Screen. Data for tumor model P388 Leukemia (intraperitoneal) in CD2F1 (CDF1) mice
Conditions: endpoint: median survival time, higher = longer survival
How it was run: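 Mice carrying the transplanted tumor received test compound or vehicle. Survival was recorded in each group, and the value is the treated-group measurement divided by that of the vehicle-treated control group.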

[1] = dose: 25.0 mg/kg/injection, schedule: Q01DX009 (ip), vehicle: saline with Tween-80
[2] = dose: 50.0 mg/kg/injection, schedule: Q01DX009 (ip), vehicle: saline with Tween-80
[3] = dose: 100.0 mg/kg/injection, schedule: Q01DX009 (ip), vehicle: saline with Tween-80
[4] = dose: 100.0 mg/kg/injection, schedule: Q04DX003 (ip), vehicle: saline
[5] = dose: 200.0 mg/kg/injection, schedule: Q04DX003 (ip), vehicle: saline
[6] = dose: 400.0 mg/kg/injection, schedule: Q04DX003 (ip), vehicle: saline
[7] = dose: 50.0 mg/kg/injection, schedule: Q01DX005 (ip), vehicle: saline with Tween-80
[8] = dose: 100.0 mg/kg/injection, schedule: Q01DX005 (ip), vehicle: saline with Tween-80
[9] = dose: 200.0 mg/kg/injection, schedule: Q01DX005 (ip), vehicle: saline with Tween-80
[10] = dose: 50.0 mg/kg/injection, schedule: Q01DX005 (ip), vehicle: saline
[11] = dose: 100.0 mg/kg/injection, schedule: Q01DX005 (ip), vehicle: saline
[12] = dose: 200.0 mg/kg/injection, schedule: Q01DX005 (ip), vehicle: saline
[13] = dose: 100.0 mg/kg/injection, schedule: Q01DX001 (ip), vehicle: saline with Tween-80
[14] = dose: 200.0 mg/kg/injection, schedule: Q01DX001 (ip), vehicle: saline with Tween-80
[15] = dose: 400.0 mg/kg/injection, schedule: Q01DX001 (ip), vehicle: saline with Tween-80
[16] = dose: 60.0 mg/kg/injection, schedule: Q01DX005 (ip), vehicle: saline with Tween-80
[17] = dose: 120.0 mg/kg/injection, schedule: Q01DX005 (ip), vehicle: saline with Tween-80
[18] = dose: 240.0 mg/kg/injection, schedule: Q01DX005 (ip), vehicle: saline with Tween-80
[19] = dose: 50.0 mg/kg/injection, schedule: Q01DX005 (ip), vehicle: Klucel (hydroxypropylcellulose) (HPC)

Measured: T/C

O=C(O)CN(CCO)CCN(CC(=O)O)CC(=O)O
inactive: dose: 12.5 mg/kg/injection, schedule: Q01DX009 (ip), vehicle: saline 100 % of control | [1] 100 % of control | dose: 25.0 mg/kg/injection, schedule: Q01DX009 (ip), vehicle: saline 104 % of control | [2] 95 % of control | dose: 50.0 mg/kg/injection, schedule: Q01DX009 (ip), vehicle: saline 95 % of control | [3] 100 % of control | dose: 100.0 mg/kg/injection, schedule: Q01DX009 (ip), vehicle: saline 98 % of control

COc1cccc2c1C(=O)c1c(O)c3c(c(O)c1C2=O)CC(O)(C(C)=O)CC3OC1CC(NC2=CC(=O)CC(C)(C)C2)C(O)C(C)O1 (stereo not drawn)
inactive: dose: 3.13 mg/kg/injection, schedule: Q04DX003 (ip), vehicle: distilled water + Tween-80 103 % of control | dose: 6.25 mg/kg/injection, schedule: Q04DX003 (ip), vehicle: distilled water + Tween-80 103 % of control | dose: 12.5 mg/kg/injection, schedule: Q04DX003 (ip), vehicle: distilled water + Tween-80 100 % of control | dose: 25.0 mg/kg/injection, schedule: Q04DX003 (ip), vehicle: distilled water + Tween-80 100 % of control | dose: 50.0 mg/kg/injection, schedule: Q04DX003 (ip), vehicle: distilled water + Tween-80 109 % of control

COc1ccc(C2CC(=O)N(c3ncccn3)C(=O)C2)cc1
inactive: [4] 103 % of control | [5] 94 % of control | [6] 102 % of control

CCN(CC)c1cccc(Nc2nc3ccccc3s2)c1
inactive: dose: 60.0 mg/kg/injection, schedule: Q01DX005 (ip), vehicle: Klucel (hydroxypropylcellulose) (HPC) 97 % of control | dose: 120.0 mg/kg/injection, schedule: Q01DX005 (ip), vehicle: Klucel (hydroxypropylcellulose) (HPC) 88 % of control | dose: 240.0 mg/kg/injection, schedule: Q01DX005 (ip), vehicle: Klucel (hydroxypropylcellulose) (HPC) 93 % of control

CC(C)CC(NC(=O)C(C)N)C(=O)OC(C)(C)C (stereo not drawn)
inactive: [7] 101 % of control | [8] 102 % of control | [9] 96 % of control

CC1C(=O)C23CC1CCC2C12COC(=O)C1C(C)(C)C(=O)CC2OC3=O (stereo not drawn)
inactive: dose: 50.0 mg/kg/injection, schedule: Q04DX002 (ip), vehicle: saline with Tween-80 105 % of control | dose: 100.0 mg/kg/injection, schedule: Q04DX002 (ip), vehicle: saline with Tween-80 93 % of control | dose: 200.0 mg/kg/injection, schedule: Q04DX002 (ip), vehicle: saline with Tween-80 94 % of control

OCC1(c2cccnc2)OCCO1
inactive: [10] 99 % of control | [11] 101 % of control | [12] 101 % of control

CN(CCNCC1CCCN1C)Cc1cccc(Cl)c1 (stereo not drawn)
inactive: [10] 108 % of control | [11] 101 % of control | [12] 106 % of control

Cc1ccc(C)c(C2=C/C(=C/c3ccc(N(CCC#N)CCC#N)cc3)C(=O)O2)c1
inactive: [13] 97 % of control | [14] 92 % of control | [15] 101 % of control

COc1ccc(C2=C[P+](c3ccccc3)(c3ccccc3)C=C(c3ccccc3)O2)cc1
inactive: dose: 0.75 mg/kg/injection, schedule: Q01DX005 (ip), vehicle: saline with Tween-80 100 % of control and 110 % of control | dose: 0.75 mg/kg/injection, schedule: Q01DX005 (ip), vehicle: saline 120 % of control | dose: 1.5 mg/kg/injection, schedule: Q01DX005 (ip), vehicle: saline with Tween-80 108 % of control and 119 % of control | dose: 1.5 mg/kg/injection, schedule: Q01DX005 (ip), vehicle: saline 110 % of control | dose: 3.0 mg/kg/injection, schedule: Q01DX005 (ip), vehicle: saline with Tween-80 110 % of control and 120 % of control | dose: 3.0 mg/kg/injection, schedule: Q01DX005 (ip), vehicle: saline 120 % of control | dose: 3.12 mg/kg/injection, schedule: Q01DX005 (ip), vehicle: saline with Tween-80 114 % of control | dose: 6.0 mg/kg/injection, schedule: Q01DX005 (ip), vehicle: saline with Tween-80 111 % of control | dose: 6.25 mg/kg/injection, schedule: Q01DX005 (ip), vehicle: saline with Tween-80 118 % of control

CCCCCCCCCCCC1N=C(N)N=C(N)N1c1cccc(Br)c1 (stereo not drawn)
inactive: dose: 12.5 mg/kg/injection, schedule: Q01DX005 (ip), vehicle: saline with Tween-80 100 % of control | dose: 25.0 mg/kg/injection, schedule: Q01DX005 (ip), vehicle: saline with Tween-80 112 % of control | [7] 97 % of control

CC(=O)c1c[nH]c(=O)c2cc3c(cc12)OCO3
inactive: [16] 95 % of control | [17] 91 % of control

Cc1cc(C)nc(NS(=O)(=O)c2ccc(NC(=O)c3cccnc3Nc3cccc(Cl)c3)cc2)n1
inactive: [16] 105 % of control | [17] 115 % of control | [18] 112 % of control

OC(c1ccccc1)(C(F)(F)F)C(O)(c1ccccc1)C(F)(F)F (stereo not drawn)
inactive: [2] 99 % of control | [3] 104 % of control | dose: 200.0 mg/kg/injection, schedule: Q01DX009 (ip), vehicle: saline with Tween-80 87 % of control

CSC(=S)c1ccc(NS(=O)(=O)c2ccccc2)cc1
inactive: [4] 100 % of control | [5] 106 % of control | [6] 105 % of control

COc1cc2c(cc1OC)C(c1ccc([N+](=O)[O-])c(C)c1)=NCC2
inactive: [19] 100 % of control | dose: 100.0 mg/kg/injection, schedule: Q01DX005 (ip), vehicle: Klucel (hydroxypropylcellulose) (HPC) 100 % of control | dose: 200.0 mg/kg/injection, schedule: Q01DX005 (ip), vehicle: Klucel (hydroxypropylcellulose) (HPC) 96 % of control

C=C1C(=O)OC2C=CCC12 (stereo not drawn)
inactive: dose: 3.13 mg/kg/injection, schedule: Q01DX009 (ip), vehicle: distilled water + Tween-80 99 % of control | dose: 6.25 mg/kg/injection, schedule: Q01DX009 (ip), vehicle: distilled water + Tween-80 99 % of control | dose: 12.5 mg/kg/injection, schedule: Q01DX009 (ip), vehicle: distilled water + Tween-80 100 % of control | dose: 25.0 mg/kg/injection, schedule: Q01DX009 (ip), vehicle: distilled water + Tween-80 107 % of control | dose: 50.0 mg/kg/injection, schedule: Q01DX009 (ip), vehicle: distilled water + Tween-80 107 % of control

CCCCCCC/C=C/C(=O)OC1C(OC2C(OC(CCCCCCC)CC(=O)OC(CCCCCCC)CC(=O)O)OC(C)C(O)C2O)OC(C)C(O)C1O (stereo not drawn)
inactive: dose: 12.5 mg/kg/injection, schedule: Q01DX009 (ip), vehicle: Klucel (hydroxypropylcellulose) (HPC) 102 % of control and 89 % of control | dose: 25.0 mg/kg/injection, schedule: Q01DX009 (ip), vehicle: Klucel (hydroxypropylcellulose) (HPC) 98 % of control and 120 % of control and 87 % of control | dose: 50.0 mg/kg/injection, schedule: Q01DX009 (ip), vehicle: Klucel (hydroxypropylcellulose) (HPC) 120 % of control and 95 % of control (2×) | dose: 100.0 mg/kg/injection, schedule: Q01DX009 (ip), vehicle: Klucel (hydroxypropylcellulose) (HPC) 116 % of control

O=C(CCN1C(=O)c2ccccc2C1=O)Nc1c(I)cc(I)c(C(=O)O)c1I
inactive: [16] 104 % of control | [17] 106 % of control | [18] 101 % of control

O=C1CSc2nc3ccc(Br)cc3c(=O)n21
inactive: [7] 100 % of control | [8] 95 % of control | [9] 111 % of control

COc1ccc2nc(Cl)c(CBr)c(CBr)c2c1
inactive: dose: 12.5 mg/kg/injection, schedule: Q01DX005 (ip), vehicle: Klucel (hydroxypropylcellulose) (HPC) 98 % of control | [19] 117 % of control

Cc1cccc(C)c1NC(=O)C(=O)C(C#N)c1c(Cl)cccc1Cl (stereo not drawn)
inactive: [16] 102 % of control | [17] 102 % of control | [18] 104 % of control

CCCCCCCCCCCCCCCCCCSC1=CC(=O)C(Cl)=C(Cl)C1=O
inactive: dose: 10.0 mg/kg/injection, schedule: Q01DX009 (ip), vehicle: Klucel (hydroxypropylcellulose) (HPC) 97 % of control | dose: 20.0 mg/kg/injection, schedule: Q01DX009 (ip), vehicle: Klucel (hydroxypropylcellulose) (HPC) 90 % of control

Nc1nccc(Cl)n1
inactive: dose: 6.25 mg/kg/injection, schedule: Q01DX009 (ip), vehicle: saline with Tween-80 98 % of control | dose: 12.5 mg/kg/injection, schedule: Q01DX009 (ip), vehicle: saline with Tween-80 100 % of control | [1] 100 % of control | [2] 100 % of control

O=C1Nc2c(ccc3c2NCCC3)C2CCCC12 (stereo not drawn)
inactive: [13] 94 % of control | [14] 94 % of control | [15] 90 % of control
